Data from BindingDB's records for doi:10.1016/j.ejmech.2021.113362 (The First Affiliated Hospital of Wenzhou Medical University, 2021).

Target: Signal transducer and activator of transcription 3 (Homo sapiens, UniProt P40763)
Assay: Inhibition of STAT3 phosphorylation in human MDA-MB-231 cells by sandwich ELISA

Signal transducer and activator of transcription 3, sequence (P40763 whole entry): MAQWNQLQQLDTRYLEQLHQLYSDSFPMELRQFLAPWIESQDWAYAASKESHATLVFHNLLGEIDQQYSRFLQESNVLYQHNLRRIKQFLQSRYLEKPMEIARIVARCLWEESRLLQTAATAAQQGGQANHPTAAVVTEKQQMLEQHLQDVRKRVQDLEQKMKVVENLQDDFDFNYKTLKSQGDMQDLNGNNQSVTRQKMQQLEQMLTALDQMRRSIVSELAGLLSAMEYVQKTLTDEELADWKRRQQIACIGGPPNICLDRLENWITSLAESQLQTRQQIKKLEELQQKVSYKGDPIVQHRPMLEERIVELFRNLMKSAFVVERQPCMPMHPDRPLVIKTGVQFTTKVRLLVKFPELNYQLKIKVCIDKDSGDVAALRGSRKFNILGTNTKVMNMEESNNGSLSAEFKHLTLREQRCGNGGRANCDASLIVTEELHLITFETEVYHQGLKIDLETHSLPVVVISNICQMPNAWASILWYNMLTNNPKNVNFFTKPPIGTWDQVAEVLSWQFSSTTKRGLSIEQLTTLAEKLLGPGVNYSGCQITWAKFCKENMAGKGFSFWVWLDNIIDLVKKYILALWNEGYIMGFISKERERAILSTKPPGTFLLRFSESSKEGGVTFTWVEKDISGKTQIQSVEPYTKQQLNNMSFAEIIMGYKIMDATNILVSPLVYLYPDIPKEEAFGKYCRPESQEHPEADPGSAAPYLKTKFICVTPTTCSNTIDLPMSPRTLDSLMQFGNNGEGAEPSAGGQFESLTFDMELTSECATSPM

| IC50 | SMILES |
| --- | --- |
| 720 nM | COc1cc(NC(=O)c2ccc(Cl)c(S(N)(=O)=O)c2)cc(OC)c1OC |
| 230 nM | CC(C)(C)OC(=O)c1ccc(NC(=O)c2ccc(Cl)c(S(N)(=O)=O)c2)cc1 |
| 920 nM | CC(C)(C)OC(=O)c1ccc(NC(=O)c2cccc(S(N)(=O)=O)c2)cc1 |
| 210 nM | O=C(Nc1ccc([N+](=O)[O-])cc1Cl)c1cc(Cl)ccc1O [5-chloro-N-(2-chloro-4-nitrophenyl)-2-hydroxybenzamide] |
